Measurements from patent US7138361B2, “Herbicidal heterocycles” (E. I. du Pont de Nemours and Company, priority 2000, dated 2006).

Experiments:
Assay type in all cases: in vivo
[1] = tested on: morning glory (Ipomoea hederacea); experiment: Test B preemergence
Method in brief: (§1)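 Greenhouse test: chemicals are formulated in a surfactant-containing non-phytotoxic solvent and applied either preemergence to planted seeds or postemergence to plants 2 to 18 cm tall. Response is rated visually versus controls after 13 to 15 days, 0 meaning no effect and 100 complete control.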

[2] = tested on: crabgrass (Digitaria sanguinalis); experiment: Test B preemergence
Method in brief: as §1

[3] = tested on: pigweed (Amaranthus retroflexus); experiment: Test B preemergence
Method in brief: as §1

[4] = tested on: Surinam grass (Brachiaria decumbens); experiment: Test B preemergence
Method in brief: as §1

[5] = tested on: cocklebur (Xanthium strumarium); experiment: Test B preemergence
Method in brief: as §1

corn (Zea mays) = experiment: Test B preemergence
Method in brief: as §1

[6] = tested on: velvetleaf (Abutilon theophrasti); experiment: Test B preemergence
Method in brief: as §1

rice (Oryza saliva) [7] = experiment: Test B preemergence
Method in brief: as §1

[8] = tested on: giant foxtail (Setaria faberii); experiment: Test B preemergence
Method in brief: as §1

[9] = tested on: barnyardgrass (Echinochloa crus-galli); experiment: Test B preemergence
Method in brief: as §1

[10] = tested on: lambsquarters (Chenopodium album); experiment: Test B preemergence
Method in brief: as §1

rice (Oryza saliva) [11] = experiment: Test C flooded paddy test; settings: for Plant response rating, Rice: scale 0 to 100 (0 no effect, 100 complete control)
Method in brief: (§2)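 Flooded paddy, 2-leaf stage at treatment. Readout: visual % control vs untreated, 0–100, at 12–14 d in greenhouse.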

[12] = tested on: duck salad (Heteranthera limosa); experiment: Test C flooded paddy test; settings: for Plant response rating, Ducksalad: scale 0 to 100 (0 no effect, 100 complete control)
Method in brief: as §2

[13] = tested on: barnyardgrass (Echinochloa crus-galli); experiment: Test C flooded paddy test; settings: for Plant response rating, Barnyardgrass: scale 0 to 100 (0 no effect, 100 complete control)
Method in brief: as §2

[14] = tested on: smallflower flatsedge (Cyperus difformis); experiment: Test C flooded paddy test; settings: for Plant response rating, Flatsedge: scale 0 to 100 (0 no effect, 100 complete control)
Method in brief: as §2

Sunflower [15] = experiment: Test C preemergence; settings: Rate 500 g/ha, visual evaluation after 12 to 14 days
Sunflower [16] = experiment: Test C preemergence; settings: Rate 250 g/ha, scale 0 to 100, 0 no effect, 100 complete control
Sunflower [17] = experiment: Test C preemergence; settings: Rate 62 g/ha, scale 0 to 100
Nightshade = experiment: Test C preemergence; settings: Rate 500 g/ha, visual evaluation after 12 to 14 days
[18] = tested on: crabgrass (Digitaria sanguinalis); experiment: Test B postemergence
Method in brief: as §1

wild oat (Avena fatua) = experiment: Test B postemergence
Method in brief: as §1

[19] = tested on: pigweed (Amaranthus retroflexus); experiment: Test B postemergence
Method in brief: as §1

[20] = tested on: wheat (Triticum aestivum); experiment: Test B postemergence
Method in brief: as §1

[21] = tested on: blackgrass (Alopecurus myosuroides); experiment: Test B postemergence
Method in brief: as §1

[22] = tested on: cocklebur (Xanthium strumarium); experiment: Test B postemergence
Method in brief: as §1

[23] = tested on: giant foxtail (Setaria faberii); experiment: Test B postemergence
Method in brief: as §1

[24] = Preemergence, Rate 500 g/ha, scale 0 to 100, 0 no effect, 100 complete control
[25] = preemergence, Rate 125 g/ha, scale of 0 to 100 where 0 is no effect and 100 is complete control, 13 to 15 days
[26] = Flooded Paddy, Rate 500 g/ha, scale 0 to 100, 0 no effect, 100 complete control
[27] = flooded paddy test, Rate 125 g/ha
[28] = flooded paddy test, Rate 250 g/ha
[29] = flooded paddy test, Rate 62 g/ha, visually evaluated after 12 to 14 days, 0 = no effect, 100 = complete control
[30] = Rate 125 g/ha, scale 0 to 100, 0 no effect, 100 complete control
[31] = Rate 500 g/ha, scale 0 (no effect) to 100 (complete control), 13 to 15 days

In the case of CCC(C)c1ccn(C2CCN(c3ccc(F)c(C(F)(F)F)c3)C2=O)n1 (centres unmarked) [Compound 145], the “Plant response rating, Morningglory” value [1, 24] is reported as 0, the “Plant response rating, Morningglory” value [1, 25] is reported as 0 and the “Plant response rating, Crabgrass” value [2, 24] is reported as 100. The “Plant response rating, Crabgrass” value [2, 25] was 100, the “Plant response rating, Pigweed” value [3, 24] was 100 and the “Plant response rating, Pigweed” value [3, 25] was 100. The “Plant response rating, Surinam grass” value [4, 24] was 60, the “Plant response rating, Surinam grass” value [4, 25] was 0 and the “Plant response rating, Cocklebur” value [5, 24] was 0. The “Plant response rating, Cocklebur” value [5, 25] was 0, the “Plant response rating, Corn” value (corn (Zea mays); [24]) was 0 and the “Plant response rating, Corn” value (corn (Zea mays); [25]) was 0. The “Plant response rating, Velvetleaf” value [6, 24] was 0, the “Plant response rating, Velvetleaf” value [6, 25] was 0 and the “Plant response rating, Rice” value (rice (Oryza saliva) [7]; [24]) was 80. The “Plant response rating, Rice” value (rice (Oryza saliva) [7]; [25]) was 0, the “Plant response rating, Foxtail, Giant” value [8, 24] was 100 and the “Plant response rating, Foxtail, Giant” value [8, 25] was 100. For the same compound, the “Plant response rating, Barnyardgrass” value [9, 24] was 100, the “Plant response rating, Barnyardgrass” value [9, 25] was 70 and the “Plant response rating, Lambsquarters” value [10, 24] was 100. For the same compound, the “Plant response rating, Lambsquarters” value [10, 25] was 100, the “Rice plant response rating” value (rice (Oryza saliva) [11]; [26]) was 60 and the “Plant response rating, Rice” value (rice (Oryza saliva) [11]; [27]) was 0. The “Plant response rating, Rice” value (rice (Oryza saliva) [11]; [28]) was 20, the “Plant response rating (scale 0 to 100), Rice” value (rice (Oryza saliva) [11]; [29]) was 0 and the “Ducksalad plant response rating” value [12, 26] was 80. For the same compound, the “Plant response rating, Ducksalad” value [12, 27] was 25, the “Plant response rating, Ducksalad” value [12, 28] was 80 and the “Plant response rating (scale 0 to 100), Ducksalad” value [12, 29] was 20. The “Barnyardgrass plant response rating” value [13, 26] was 100, the “Plant response rating, Barnyardgrass” value [13, 27] was 65 and the “Plant response rating, Barnyardgrass” value [13, 28] was 85. The “Plant response rating (scale 0 to 100), Barnyardgrass” value [13, 29] was 30, the “Flatsedge plant response rating” value [14, 26] was 95 and the “Plant response rating, Flatsedge” value [14, 27] was 80. For the same compound, the “Plant response rating, Flatsedge” value [14, 28] was 95, the “Plant response rating (scale 0 to 100), Flatsedge” value [14, 29] was 40 and the “Plant response rating (0 to 100), Sunflower” value (Sunflower [15]) was 50. The “Plant response rating, Sunflower” value (Sunflower [16]) was 50, the “Plant response rating, Sunflower” value (Sunflower [17]) was 0 and the “Plant response rating (0 to 100), Nightshade” value (Nightshade) was 90. For the same compound, the “Plant response rating, Crabgrass” value [18, 30] was 0, the “Plant response rating, Crabgrass” value [18, 31] was 0 and the “Plant response rating, Wild Oat” value (wild oat (Avena fatua); [30]) was 0. The “Plant response rating, Wild Oat” value (wild oat (Avena fatua); [31]) was 0, the “Plant response rating, Pigweed” value [19, 30] was 0 and the “Plant response rating, Pigweed” value [19, 31] was 80. For the same compound, the “Plant response rating, Wheat” value [20, 30] was 0, the “Plant response rating, Wheat” value [20, 31] was 0 and the “Plant response rating, Blackgrass” value [21, 30] was 0. The “Plant response rating, Blackgrass” value [21, 31] was 0, the “Plant response rating, Cocklebur” value [22, 30] was 0 and the “Plant response rating, Cocklebur” value [22, 31] was 0. For the same compound, the “Plant response rating, Foxtail, Giant” value [23, 30] was 0 and the “Plant response rating, Foxtail, Giant” value [23, 31] was 40.
